Data reported in US10336724B2, “D-amino acid oxidase inhibitors and therapeutic uses thereof” (SyneuRx International (Taiwan) Corp., priority 2017, dated 2019).
pIC50: −log10 of the molar value. Entries after “also recorded” stand apart in the source; their conditions may differ.

Assays:
hDAAO (human DAAO) = hDAAO (human DAAO) (Homo sapiens (Human), UniProt P14920); experiment: hDAAO (human DAAO) activity, D-serine substrate, Amplex Red fluorescence; assay type: biochemical
Experimental: The hDAAO (human DAAO) activity was measured by using D-serine as a substrate to produce H2O2. The produced H2O2 would be oxidized by peroxidase, and the produced free radicals would further react with Amplex Red reagent to emit fluorescence. The intensity of fluorescence at 590 nm would be measured to represent the activity of hDAAO. All compounds were dissolved in DMSO. Each compound was diluted with DMSO in 3-fold serial dilution to create a 9-point dose response curve. Each sample was added in triplicate, 1 μL/well, into 96-well black plates. Positive control wells were added with 1 μL of DMSO. Then 49 μL of assay buffer (100 mM Tris-HCl, pH 8.5) containing 1.2 ng/mL hDAAO, 900 nM FAD, 0.2 units/mL HRP, and 100 μM Amplex Red was added to each well of the plate using a multichannel pipette. Next, 50 μL of 100 mM D-Serine in assay buffer was added. The reaction plates were then incubated in the dark at room temperature. The fluorescence readout was detected at 0 and 20 minute by Molecular Device Gemini EM fluorescence reader using the following settings: excitation filter 530 nm, and emission filter 590 nm. The percentage of inhibition values for each well was calculated with the following equation: The percentage of inhibition=(fluorescencesample, 20 min−fluorescencesample, 0 min)/(fluorescenceDMSO, 20 min−fluorescenceDMSO, 0 min)×100%
The nonlinear curve fitting model in GraphPad Prism 5 was used to calculate IC50 value for each compound.

MK801-treated mice [1] = experiment: Pre-pulse inhibition (PPI) test, MK801-induced deficit of sensorimotor gating; assay type: in vivo; settings: Example 1 446 or 892 mg/kg orally 20 min prior to MK801 0.2 mg/kg i.p.; each pre-pulse intensity
Experimental: (§1) The mice were group housed (3-5 mice per cage) with food and water available ad libitum in polysulfone ventilated cages (Alternative Design, AR, USA) in the animal rooms of the SyneuRx International (Taiwan) Corp. The colony was maintained on a 12/12-hr light/dark cycle at the temperature of 22±2° C. and all behavioral studies were performed during dark cycle. All animals used in this study were adult mice (at least 2.5 months of age). All animal procedures were performed according to the protocols approved by the Institutional Animal Care and Use Committee (IACUC). The mice were randomly assigned into four groups, Group 1: vehicle control, Group 2: MK801, Group 3: Example 1 at 446 mg/kg+MK801, Group 4: Example 1 at 892 mg/kg+MK801. […]
(§2) All mice in the experiments were tested by open field task and pre-pulse inhibition with at least 1-week interval between two tasks. […] The percentage of pre-pulse inhibition was calculated by the following formula: % PPI=100×[(PA score)−(pp-P score)]/(PA score), where the PA score was the average of the PA value in the middle blocks. […]

MK801-treated mice [2] = experiment: Open field task, MK801-induced hyper-locomotion; assay type: in vivo; settings: Example 1 446 or 892 mg/kg orally 20 min prior to MK801 0.1 mg/kg i.p.; 120 minutes testing period
Experimental: (§3) The mice were placed in a Plexiglas cage (37.5 cm×21.5 cm×18 cm) under 50-65 lux light intensity, the spontaneous locomotion was measured for 120 minutes using the EthoVision video tracking system (Noldus Information Technology, the Netherlands). The travel distance of each mouse was measured as an index of spontaneous locomotion.
as §1, with “(IACUC).” for “(IACUC). The mice were randomly assigned into four groups, Group 1: vehicle control, Group 2: MK801, Group 3: Example 1 at 446 mg/kg+MK801, Group 4: Example 1 at 892 mg/kg+MK801.”
as §2

mice = experiment: Spontaneous locomotion in open field; assay type: in vivo; settings: oral, 446 and 892 mg/kg, 120 minutes observation
Experimental: The mice were group housed (3-5 mice per cage) with food and water available ad libitum in polysulfone ventilated cages (Alternative Design, AR, USA) in the animal rooms of SyneuRx International (Taiwan) Corp. The colony was maintained on a 12/12-hr light/dark cycle at the temperature of 22±2° C. and all behavioral studies were performed during the dark cycle. All animals used in this study were adult mice (at least 2.5 months of age). All animal procedures were performed according to the protocols approved by Institutional Animal Care and Use Committee (IACUC).
The compound of Example 1 was placed into 100% PEG400, and was sonic vibrated until solution became clear. […]
Mice that received oral administration of either vehicle or low/high dose of the compound of Example 1 was immediately subjected to open field test and the index of spontaneous locomotion was expressed as total travel distance measured within the defined time frame.
as §3

hDAAO (human DAAO), sequence (P14920 whole entry): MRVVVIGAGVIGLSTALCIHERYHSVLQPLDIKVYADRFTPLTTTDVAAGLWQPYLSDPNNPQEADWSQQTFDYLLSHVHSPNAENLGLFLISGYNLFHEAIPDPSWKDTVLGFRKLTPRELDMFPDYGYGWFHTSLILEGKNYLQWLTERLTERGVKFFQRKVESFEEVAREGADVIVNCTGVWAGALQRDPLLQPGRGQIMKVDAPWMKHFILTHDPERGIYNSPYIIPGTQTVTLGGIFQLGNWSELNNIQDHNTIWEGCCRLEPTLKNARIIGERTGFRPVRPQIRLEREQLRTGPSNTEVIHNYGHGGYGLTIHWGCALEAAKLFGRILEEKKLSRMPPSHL

SMILES | pIC50 (hDAAO (human DAAO)) | percentage of pre-pulse inhibition compared to control group (MK801-treated mice [1]) | locomotion activity in open field task compared to control group (MK801-treated mice [2]) | spontaneous locomotion (total travel distance) versus vehicle (mice)
O=C(Oc1coc(CO)cc1=O)c1ccc[nH]1 [Compound 1, 6-(hydroxymethyl)-4-oxo-4H-pyran-3-yl 1H-pyrrole-2-carboxylate] | 3.30 to 4.00 | the same level of pre-pulse inhibition percentage; also recorded: rescued/protected the MK801-induced PPI deficits | equal level of locomotion activity as mice in the control group; also recorded: reversed/protected MK801-induced hyper-locomotion activity | no significant difference between groups
C[C@]12N[C@H](Cc3ccccc31)c1ccccc12 [MK801, reference compound] | – | lower percentage of pre-pulse inhibition | displayed hyper-locomotion | –
